Test results taken from patent publication US7468357B2, “Nucleosides with anti-hepatitis B virus activity” (Emory University, priority 1994, dated 2008).
Read-outs that look alike come from different tables or passages of the source.

Assays:
Hepatitis B virus = assay: Inhibition of HBV replication in transfected HepG-2 (2.2.15) cells (HBV virion DNA and replicative intermediates, blot hybridization); format: cell-based; conditions: for Selectivity Index IC50/EC90 RI: cytotoxicity IC50 / RI EC90; for Selectivity Index IC50/EC90 Virion: cytotoxicity IC50 / virion EC90; for Selectivity Index IC50/EC50 RI: cytotoxicity IC50 / RI EC50; for Selectivity Index IC50/EC50 Virion: cytotoxicity IC50 / virion EC50
Method: The assay used herein to evaluate the ability of the disclosed compounds to inhibit the replication of HBV is described in detail in Korba and Gerin, Antiviral Res. 19: 55-70 (1992). […] The toxicity and anti-HBV activity of (−)-β-L-2-hydroxymethyl-5-(5-fluorocytosin-1-yl)-1,3-oxathiolane ((−)-β-L-FTC) and β-D-2′,3′-dideoxycytidine (β-D-ddC) are included as controls. The other compounds disclosed herein can be evaluated similarly.
The antiviral evaluations were performed on two separate passages of cells, two cultures per passage (4 cultures total). All wells, in all plates, were seeded at the same density and at the same time.
(Korba and Gerin, Antiviral Res. 19: 55-70, 1992). The levels of integrated HBV DNA in each cellular DNA preparation (which remain constant on a per cell basis in these experiments) were used to calculate the levels of intracellular HBV DNA forms, thereby eliminating technical variations inherent in the blot hybridization assays.
(§1) Toxicity analyses were performed in order to assess whether any observed antiviral effects were due to a general effect on cell viability. The method used was based on the uptake of neutral red dye, a standard and widely used assay for cell viability in a variety of virus-host systems, including HSV (herpes simplex virus) and HIV. The test compounds were used in the form of 40 mM stock solutions in DMSO (frozen on dry ice). Daily aliquots of the test samples were made and frozen at −20° C. so that each individual aliquot would be subjected to a single freeze-thaw cycle. The daily test aliquots were thawed, suspended into culture medium at room temperature and immediately added to the cell cultures. The compounds were tested at 0.01 to 10 μM for antiviral activity. The compounds were tested for toxicity at concentrations from 1 to 300 μM.

[1] = test system: 2.2.15 cells (HepG2 cells transformed with hepatitis virion); assay: Toxicity analysis by uptake of neutral red dye in 2.2.15 cell cultures
Method: as §1
Toxicity analyses were performed in 96-well flat bottomed tissue culture plates. Cells for the toxicity analyses were cultured and treated with test compounds with the same schedule as used for the antiviral evaluations. Each compound was tested at 4 concentrations, each in triplicate cultures. Uptake of neutral red dye was used to determine the relative level of toxicity. The absorbance of internalized dye at […] (A510) was used for the quantitative analysis. Values are presented as a percentage of the average A510 values (± standard deviations) in 9 separate cultures of untreated cells maintained on the same 96-well plate as the test compounds.

[2] = molecular target: woodchuck hepatitis virus DNA polymerase (Woodchuck hepatitis B virus, UniProt P03160); assay: Inhibition of woodchuck hepatitis virus DNA polymerase by triphosphates; format: biochemical; conditions: read-out: WHB DNA Pol IC50
Sequence of woodchuck hepatitis virus DNA polymerase (P03160 whole entry): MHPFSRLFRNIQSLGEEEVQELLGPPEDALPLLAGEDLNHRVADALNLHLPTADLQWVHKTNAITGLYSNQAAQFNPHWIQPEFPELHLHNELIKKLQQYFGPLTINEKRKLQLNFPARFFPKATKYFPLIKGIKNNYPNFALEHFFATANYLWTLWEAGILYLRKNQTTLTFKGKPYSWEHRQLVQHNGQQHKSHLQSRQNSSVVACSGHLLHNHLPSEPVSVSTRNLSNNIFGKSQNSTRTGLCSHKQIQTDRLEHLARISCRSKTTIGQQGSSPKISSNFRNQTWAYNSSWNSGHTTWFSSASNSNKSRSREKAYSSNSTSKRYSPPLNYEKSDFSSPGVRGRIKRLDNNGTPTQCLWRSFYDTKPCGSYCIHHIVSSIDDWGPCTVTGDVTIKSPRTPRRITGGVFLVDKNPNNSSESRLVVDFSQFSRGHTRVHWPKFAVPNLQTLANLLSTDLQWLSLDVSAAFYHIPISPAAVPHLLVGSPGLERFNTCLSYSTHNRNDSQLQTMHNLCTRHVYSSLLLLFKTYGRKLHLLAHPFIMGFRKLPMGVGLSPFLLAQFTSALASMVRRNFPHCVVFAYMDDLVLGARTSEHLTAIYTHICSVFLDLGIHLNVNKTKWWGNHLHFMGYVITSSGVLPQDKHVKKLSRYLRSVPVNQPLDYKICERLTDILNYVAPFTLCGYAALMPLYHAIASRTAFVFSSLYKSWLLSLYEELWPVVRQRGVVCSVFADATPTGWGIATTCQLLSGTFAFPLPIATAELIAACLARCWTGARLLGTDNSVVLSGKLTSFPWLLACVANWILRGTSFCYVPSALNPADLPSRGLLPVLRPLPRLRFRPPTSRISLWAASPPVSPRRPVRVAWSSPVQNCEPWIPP

human DNA polymerase β = human DNA polymerase β (Homo sapiens, UniProt P06746); assay: Inhibition of human DNA polymerase β by triphosphates; format: biochemical; conditions: read-out: DNA Pol β Ki
human DNA polymerase α = molecular target: T1, human DNA polymerase α (Homo sapiens, UniProt P09884); assay: Inhibition of human DNA polymerase α by triphosphates; format: biochemical; conditions: read-out: DNA Pol α Ki
T1 sequence (P09884 1-1462): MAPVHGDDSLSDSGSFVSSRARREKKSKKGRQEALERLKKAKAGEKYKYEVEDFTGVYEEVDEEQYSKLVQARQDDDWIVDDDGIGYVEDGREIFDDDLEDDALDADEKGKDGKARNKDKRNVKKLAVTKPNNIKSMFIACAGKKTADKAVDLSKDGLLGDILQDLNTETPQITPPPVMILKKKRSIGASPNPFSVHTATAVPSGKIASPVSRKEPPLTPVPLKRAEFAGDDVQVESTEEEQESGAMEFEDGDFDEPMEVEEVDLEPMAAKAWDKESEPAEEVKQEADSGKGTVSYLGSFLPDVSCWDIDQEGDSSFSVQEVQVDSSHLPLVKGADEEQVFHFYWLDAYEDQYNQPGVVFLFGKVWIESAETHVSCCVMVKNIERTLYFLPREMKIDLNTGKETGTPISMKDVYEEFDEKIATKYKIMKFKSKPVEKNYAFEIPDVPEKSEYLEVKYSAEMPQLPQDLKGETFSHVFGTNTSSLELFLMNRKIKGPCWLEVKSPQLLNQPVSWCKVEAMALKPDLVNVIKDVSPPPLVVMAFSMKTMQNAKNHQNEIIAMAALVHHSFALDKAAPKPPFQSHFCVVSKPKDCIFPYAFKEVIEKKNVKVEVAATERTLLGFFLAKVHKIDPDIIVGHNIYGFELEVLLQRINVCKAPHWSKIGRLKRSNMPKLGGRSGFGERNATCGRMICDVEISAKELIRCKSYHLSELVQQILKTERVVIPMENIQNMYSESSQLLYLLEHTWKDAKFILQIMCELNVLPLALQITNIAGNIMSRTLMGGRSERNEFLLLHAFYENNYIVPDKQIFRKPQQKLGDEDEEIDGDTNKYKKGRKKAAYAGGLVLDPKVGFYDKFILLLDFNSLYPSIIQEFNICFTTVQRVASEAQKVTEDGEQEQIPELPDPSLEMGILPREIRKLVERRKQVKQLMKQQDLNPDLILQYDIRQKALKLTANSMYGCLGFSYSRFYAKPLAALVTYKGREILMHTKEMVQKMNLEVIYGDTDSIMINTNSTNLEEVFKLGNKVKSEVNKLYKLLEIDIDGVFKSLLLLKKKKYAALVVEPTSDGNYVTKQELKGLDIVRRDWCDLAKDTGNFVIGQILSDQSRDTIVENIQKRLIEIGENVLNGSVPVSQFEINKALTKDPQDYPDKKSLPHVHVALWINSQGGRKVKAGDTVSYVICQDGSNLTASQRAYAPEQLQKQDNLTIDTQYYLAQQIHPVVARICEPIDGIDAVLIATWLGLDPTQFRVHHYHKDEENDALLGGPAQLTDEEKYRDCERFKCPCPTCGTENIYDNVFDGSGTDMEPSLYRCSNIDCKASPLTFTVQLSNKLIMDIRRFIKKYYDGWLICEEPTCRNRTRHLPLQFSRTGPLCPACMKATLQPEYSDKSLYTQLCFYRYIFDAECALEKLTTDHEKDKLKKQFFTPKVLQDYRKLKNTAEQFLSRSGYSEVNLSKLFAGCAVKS

[3] = Table 1, extracellular DNA, transfected HEPG-2 (2.2.15) cells, read-out: HBV viron EC90 ± SD
[4] = Table 1, replicative intermediates (intracellular DNA), transfected HEPG-2 (2.2.15) cells, read-out: HBV RI EC50 ± SD
[5] = Table 1, replicative intermediates (intracellular DNA), transfected HEPG-2 (2.2.15) cells, read-out: HBV RI EC90 ± SD
[6] = read-out: Cytotoxity IC50 ± SD, Table 1, neutral red dye uptake, 2.2.15 cells
[7] = Table 2, extracellular DNA, transfected Hep G-2 (2.2.15) cells, read-out: HBV Virion EC50
[8] = Table 2, replicative intermediates (intracellular DNA), transfected Hep G-2 (2.2.15) cells, read-out: HBV RI EC50
[9] = read-out: Cytotoxicity IC50, Table 2, Hep G-2 (2.2.15) cells

Row | Structure (SMILES) | Selectivity Index IC50/EC90 RI (Hepatitis B virus; Table 1) | Selectivity Index IC50/EC90 Virion (Hepatitis B virus; Table 1) | EC90 (Hepatitis B virus; [3]) [µM] | EC50 (Hepatitis B virus; [4]) [µM] | EC90 (Hepatitis B virus; [5]) [µM] | IC50 [1, 6] [µM] | Selectivity Index IC50/EC50 RI (Hepatitis B virus; Table 2) | Selectivity Index IC50/EC50 Virion (Hepatitis B virus; Table 2) | EC50 (Hepatitis B virus; [7]) [µM] | EC50 (Hepatitis B virus; [8]) [µM] | IC50 [1, 9] [µM] | other results
1 | Nc1nc(=O)n(C2CSC(CO)O2)cc1F [(−)-β-L-FTC, (−)-β-L-2-hydroxymethyl-5-(5-fluorocytosin-1-yl)-1,3-oxathiolane, reference compound] | 1,622 | 1,947 | 0.15 ± 0.02 | 0.049 ± 0.008 | 0.18 ± 0.03 | 292 ± 13 | – | – | – | – | – | EC50 (Hepatitis B virus; Table 1, extracellular DNA, transfected HEPG-2 (2.2.15) cells, read-out: HBV viron EC50 ± SD): 0.017 ± 0.005 µM
2 | Nc1nc(=O)n([C@@H]2CC[C@H](CO)O2)cc1F [β-L-FDDC, 2′,3′-Dideoxy-β-L-5-fluorocytidine] | 91 | 1,460 | 0.3 ± 0.03 | 2.8 ± 0.4 | 4.8 ± 0.6 | 438 ± 57 | – | – | – | – | – | Inhibition of HBV replication (depression of HBV virion DNA and HBV RI), in words (Hepatitis B virus; 2.2.15 cells): potent inhibitors of HBV replication
3 | CC(C)(C)C(=O)SCCOP(=O)(OCCSC(=O)C(C)(C)C)OCC1CCC(n2cnc3c(N)ncnc32)O1 [Bis (Sate) β-L-ddAMP, β-L-2′,3′-Dideoxyadenosin-5′-yl bis (2-pivaloylthioethyl) phosphate] | – | – | – | – | – | – | 571 | 445 | 0.45 | 0.35 | 200 | –
4 | Nc1nc(=O)n([C@@H]2CC[C@H](COP(=O)(O)OP(=O)(O)OP(=O)(O)O)O2)cc1F [β-L-5FDDCTP] | – | – | – | – | – | – | – | – | – | – | – | IC50 [2]: 2 µM; Ki (human DNA polymerase β): > 100 µM; Ki (human DNA polymerase α): > 100 µM
5 | CC(=O)SCCOP(=O)(OCCSC(C)=O)OC[C@@H]1O[C@H](n2cc(C)c(=O)[nH]c2=O)C[C@H]1N=[N+]=[N-] [Bis (Sate) β-L-AZTMP] | – | – | – | – | – | – | 25 | 27 | 7.5 | 8 | 200 | –
6 | Nc1ncnc2c1ncn2[C@@H]1CC[C@H](CO)O1 [β-L-ddA] | – | – | – | – | – | – | 50 | 50 | 5 | 5 | 250 | –
